Measured values: patent US20230079819A1, “COMPOUNDS AND USES THEREOF” (Foghorn Therapeutics Inc., priority 2019, published 2023)
pIC50: −log10 of the molar value. Read-outs that look alike come from different tables or passages of the source.

Legend:
BRM = target: T1, BRM (Homo sapiens, UniProt P51531); test: ATPase catalytic activity of BRM, ADP-Glo in vitro biochemical assay; conditions: 30 nM BRM, 400 μM ATP; for pIC50: read-out: BRM IP50; for IC50: read-out: BRM IP50 (μM)*
T1 construct: made in house; host or cells: High Five insect cells

BRG-1 = target: T2, BRG-1 (Homo sapiens, UniProt P51532); test: ATPase catalytic activity of BRG-1, ADP-Glo in vitro biochemical assay; conditions: 30 nM BRG-1, 400 μM ATP; for pIC50: read-out: BRG1 IP50; for IC50: read-out: BRG1 IP50 (μM)*
T2 construct: made in house; host or cells: High Five insect cells
T2 sequence (P51532 whole entry): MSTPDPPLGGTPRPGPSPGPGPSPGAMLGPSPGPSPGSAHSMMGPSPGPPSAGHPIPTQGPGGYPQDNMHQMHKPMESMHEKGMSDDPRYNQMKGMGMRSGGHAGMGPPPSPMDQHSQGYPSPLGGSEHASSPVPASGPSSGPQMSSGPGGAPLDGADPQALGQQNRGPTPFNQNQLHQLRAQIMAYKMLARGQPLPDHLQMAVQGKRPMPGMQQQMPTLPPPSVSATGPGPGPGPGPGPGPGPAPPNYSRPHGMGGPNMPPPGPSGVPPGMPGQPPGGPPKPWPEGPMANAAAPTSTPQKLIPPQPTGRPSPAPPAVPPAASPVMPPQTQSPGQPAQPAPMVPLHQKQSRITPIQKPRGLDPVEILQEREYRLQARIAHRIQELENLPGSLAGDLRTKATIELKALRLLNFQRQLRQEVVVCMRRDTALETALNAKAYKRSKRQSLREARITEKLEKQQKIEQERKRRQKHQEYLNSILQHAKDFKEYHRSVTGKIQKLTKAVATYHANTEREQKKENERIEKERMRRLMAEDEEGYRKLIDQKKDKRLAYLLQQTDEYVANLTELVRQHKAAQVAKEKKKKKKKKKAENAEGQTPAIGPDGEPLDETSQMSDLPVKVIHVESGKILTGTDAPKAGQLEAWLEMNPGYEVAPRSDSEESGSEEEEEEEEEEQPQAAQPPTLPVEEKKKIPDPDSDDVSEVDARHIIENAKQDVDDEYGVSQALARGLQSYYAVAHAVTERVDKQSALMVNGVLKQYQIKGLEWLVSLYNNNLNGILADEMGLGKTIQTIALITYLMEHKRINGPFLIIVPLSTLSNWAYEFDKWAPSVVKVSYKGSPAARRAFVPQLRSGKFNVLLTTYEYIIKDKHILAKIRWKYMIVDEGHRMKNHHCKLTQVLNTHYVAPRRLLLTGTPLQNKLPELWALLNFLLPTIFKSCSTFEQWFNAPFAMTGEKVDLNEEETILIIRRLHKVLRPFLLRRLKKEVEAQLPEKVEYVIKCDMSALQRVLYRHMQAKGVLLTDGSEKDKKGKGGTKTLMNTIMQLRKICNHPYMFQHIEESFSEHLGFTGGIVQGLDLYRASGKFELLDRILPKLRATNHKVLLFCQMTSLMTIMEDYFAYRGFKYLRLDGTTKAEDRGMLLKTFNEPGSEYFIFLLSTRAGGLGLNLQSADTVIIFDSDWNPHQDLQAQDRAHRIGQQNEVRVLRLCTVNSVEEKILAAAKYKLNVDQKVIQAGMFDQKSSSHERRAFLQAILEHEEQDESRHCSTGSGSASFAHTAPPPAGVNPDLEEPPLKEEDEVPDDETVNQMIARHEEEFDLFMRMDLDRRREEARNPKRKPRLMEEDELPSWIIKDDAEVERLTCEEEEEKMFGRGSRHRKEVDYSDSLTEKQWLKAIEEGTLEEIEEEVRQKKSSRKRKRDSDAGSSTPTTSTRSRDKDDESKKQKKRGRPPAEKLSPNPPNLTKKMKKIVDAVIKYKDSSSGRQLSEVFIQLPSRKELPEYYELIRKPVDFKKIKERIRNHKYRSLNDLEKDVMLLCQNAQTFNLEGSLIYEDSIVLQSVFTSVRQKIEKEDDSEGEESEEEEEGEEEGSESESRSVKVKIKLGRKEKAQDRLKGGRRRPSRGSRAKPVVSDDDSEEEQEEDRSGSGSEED

T1 sequence (P51531 whole entry): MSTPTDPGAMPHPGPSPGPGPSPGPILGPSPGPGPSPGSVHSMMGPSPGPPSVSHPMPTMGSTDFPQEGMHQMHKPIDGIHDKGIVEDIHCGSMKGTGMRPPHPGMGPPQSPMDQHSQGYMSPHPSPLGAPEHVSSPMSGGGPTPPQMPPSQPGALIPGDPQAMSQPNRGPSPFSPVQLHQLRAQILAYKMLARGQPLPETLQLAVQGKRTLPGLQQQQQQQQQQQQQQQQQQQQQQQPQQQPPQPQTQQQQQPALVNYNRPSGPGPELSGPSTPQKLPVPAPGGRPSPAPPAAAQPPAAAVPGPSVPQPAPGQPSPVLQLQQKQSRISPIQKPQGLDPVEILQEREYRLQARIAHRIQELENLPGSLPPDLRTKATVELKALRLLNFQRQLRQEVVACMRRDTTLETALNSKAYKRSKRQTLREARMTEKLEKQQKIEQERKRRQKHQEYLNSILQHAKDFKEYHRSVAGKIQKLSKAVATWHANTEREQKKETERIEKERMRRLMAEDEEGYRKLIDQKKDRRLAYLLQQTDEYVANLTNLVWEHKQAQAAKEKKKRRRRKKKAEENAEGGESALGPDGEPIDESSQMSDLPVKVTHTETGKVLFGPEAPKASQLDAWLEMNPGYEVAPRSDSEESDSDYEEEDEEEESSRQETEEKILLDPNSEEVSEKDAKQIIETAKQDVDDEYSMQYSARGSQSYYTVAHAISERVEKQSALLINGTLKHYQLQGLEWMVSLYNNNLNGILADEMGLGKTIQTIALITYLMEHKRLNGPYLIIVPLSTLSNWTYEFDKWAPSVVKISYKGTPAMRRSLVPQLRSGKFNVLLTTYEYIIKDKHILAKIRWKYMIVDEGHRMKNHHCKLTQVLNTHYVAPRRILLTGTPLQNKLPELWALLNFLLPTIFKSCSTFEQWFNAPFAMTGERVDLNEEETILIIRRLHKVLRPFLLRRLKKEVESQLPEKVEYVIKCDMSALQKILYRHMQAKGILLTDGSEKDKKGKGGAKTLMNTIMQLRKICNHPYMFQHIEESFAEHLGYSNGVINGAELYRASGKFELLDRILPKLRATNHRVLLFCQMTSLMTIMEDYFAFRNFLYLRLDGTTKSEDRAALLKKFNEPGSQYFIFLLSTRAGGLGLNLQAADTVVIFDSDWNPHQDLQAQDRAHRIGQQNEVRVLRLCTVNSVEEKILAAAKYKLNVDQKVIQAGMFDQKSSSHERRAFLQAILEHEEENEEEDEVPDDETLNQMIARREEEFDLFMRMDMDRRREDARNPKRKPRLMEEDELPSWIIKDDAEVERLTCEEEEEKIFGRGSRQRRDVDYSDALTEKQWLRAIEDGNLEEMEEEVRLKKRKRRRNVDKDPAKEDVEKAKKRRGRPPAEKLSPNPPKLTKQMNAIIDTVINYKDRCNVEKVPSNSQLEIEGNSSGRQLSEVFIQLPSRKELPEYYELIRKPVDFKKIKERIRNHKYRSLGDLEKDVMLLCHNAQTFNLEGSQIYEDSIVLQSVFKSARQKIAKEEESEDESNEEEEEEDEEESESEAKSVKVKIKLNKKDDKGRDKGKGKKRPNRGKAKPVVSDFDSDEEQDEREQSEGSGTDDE

Structure (SMILES)	pIC50 (BRM; ATPase catalytic activity)	pIC50 (BRG-1; ATPase catalytic activity)	IC50 (BRM; ATPase catalytic activity) [µM]	IC50 (BRG-1; ATPase catalytic activity) [µM]	further results
CS(=O)(=O)n1ccc(C(=O)NCC(=O)Nc2nc(-c3cccc(N4CC[C@@H](N)C(F)(F)C4)c3)cs2)c1 [Compound 558]	> 8.00	> 8.00			
CS(=O)(=O)n1ccc(C(=O)NCC(=O)Nc2nc(-c3cccc(-c4ccnc(N)c4)c3)cs2)c1 [Compound 9, N-(2-((4-(3-(2-aminopyridin-4-yl)phenyl)thiazol-2-yl)amino)-2-oxoethyl)-1-(methylsulfonyl)-1H-pyrrole-3-carboxamide]			< 0.01	< 0.01	
CS(=O)(=O)n1cc(C(=O)NCC(=O)Nc2nc(-c3cccc(-c4ccncc4)c3)cs2)cn1 [Compound 44, 1-(methylsulfonyl)-N-(2-oxo-2-((4-(3-(pyridin-4-yl)phenyl)thiazol-2-yl)amino)ethyl)-1H-pyrazole-4-carboxamide]			> 0.01	> 0.1	
CO[C@H]1CCCN(c2cccc(-c3csc(NC(=O)CNC(=O)c4ccn(C(C)(C)C)c4)n3)c2)C1 [Compound 98, (S)-1-(tert-butyl)-N-(2-((4-(3-(3-methoxypiperidin-1-yl)phenyl)thiazol-2-yl)amino)-2-oxoethyl)-1H-pyrrole-3-carboxamide]			> 0.01	> 0.01	
CS(=O)(=O)n1ccc(C(=O)NCC(=O)Nc2nc(-c3cccc(N4CCC(F)CC4)c3)cs2)c1 [Compound 449]	< 8.00	< 8.00			
CS(=O)(=O)n1ccc(C(=O)NCC(=O)Nc2nc(-c3cccc(C4(F)CCC4)c3)cs2)c1 [Compound 256]			> 0.01	> 0.01	
COC[C@H](NC(=O)c1ccn(S(C)(=O)=O)c1)C(=O)Nc1nc(-c2cc(F)c3c(c2)CCO3)cs1 [Compound 708]	> 8.00	> 8.00			
C[C@@H]1CN(c2cccc(-c3csc(NC(=O)[C@H](C)NC(=O)c4cn(C5(C)COC5)cn4)n3)n2)C[C@H](C)O1 [Compound 797]					pIC50 (BRM): < 7.00; pIC50 (BRG-1): < 7.00
CCO[C@H](NC(=O)c1ccn(S(C)(=O)=O)c1)C(=O)Nc1nc(-c2cccc([C@H]3CC3(F)F)n2)cs1 [Compound 606]	< 8.00	< 7.00			
CS(=O)(=O)n1ccc(C(=O)NCC(=O)Nc2nc(-c3cccc(N4CCC5(CC4)COC5)c3)cs2)c1 [Compound 202]			> 0.01	> 0.01	
CC(C)(C)n1ccc(C(=O)NCC(=O)Nc2nc(-c3cccc(N4CCC(OC(F)F)C4)n3)cs2)c1 (stereo not shown) [Compound 633]	< 8.00	< 8.00			
N#CC1(n2ccc(C(=O)NCC(=O)Nc3nc(-c4cc(F)cc(N5CCC5)c4)cs3)c2)CC1 [Compound 521]	> 8.00	< 8.00			
CS(=O)(=O)n1ccc(C(=O)NCC(=O)Nc2nc(-c3cccc(N4CC[C@H](O)C4)c3)cs2)c1 [Compound 177]			> 0.01	> 0.01	
CC(C)(C)n1ccc(C(=O)NCC(=O)Nc2nc(-c3cccc(N4CC(N5CCS(=O)(=O)CC5)C4)n3)cs2)c1 [Compound 629]	< 7.00	< 7.00			
COC[C@H](NC(=O)c1ncc(C(C)(C)C)o1)C(=O)Nc1nc(-c2cccc(-c3cnn(C)n3)c2)cs1 [Compound 821]					pIC50 (BRM): < 8.00; pIC50 (BRG-1): < 8.00
CN1C(=O)CC[C@@H]2CN(c3cccc(-c4csc(NC(=O)CNC(=O)c5ccn(C(C)(C)C)c5)n4)n3)CC[C@H]21 [Compound 643]	< 8.00	< 8.00			
COC[C@H](NC(=O)c1ccn(C(C)(C)C)c1)C(=O)Nc1nc(-c2cnc3ccn(C)c(=O)c3c2)cs1 [Compound 611]	< 8.00	< 8.00			
Cn1ccc(-c2cccc(-c3csc(NC(=O)CNC(=O)c4ccn(C(C)(C)CO)c4)n3)c2)n1 [Compound 30, 1-(1-hydroxy-2-methylpropan-2-yl)-N-(2-((4-(3-(1-methyl-1H-pyrazol-3-yl)phenyl)thiazol-2-yl)amino)-2-oxoethyl)-1H-pyrrole-3-carboxamide]			> 0.01	> 0.01	
CS(=O)(=O)n1ccc(C(=O)NCC(=O)Nc2nc(-c3cccc(N4CCC[C@@H](C#N)C4)c3)cs2)c1 [Compound 211]			> 0.01	> 0.01	
CC(C)(C)n1ccc(C(=O)NCC(=O)Nc2nc(-c3cccc(N4CCn5ncnc5C4)n3)cs2)c1 [Compound 692]	< 8.00	< 8.00			

Second part, led by results:

pIC50 (BRM; ATPase catalytic activity)	pIC50 (BRG-1; ATPase catalytic activity)	IC50 (BRM; ATPase catalytic activity) [µM]	IC50 (BRG-1; ATPase catalytic activity) [µM]	Structure (SMILES)	further results
		> 0.01	> 0.01	CN(C)S(=O)(=O)n1ccc(C(=O)NCC(=O)Nc2nc(-c3cccc(-c4ccncc4)c3)cs2)c1 [Compound 47, 1-(N,N-dimethylsulfamoyl)-N-(2-oxo-2-((4-(3-(pyridin-4-yl)phenyl)thiazol-2-yl)amino)ethyl)-1H-pyrrole-3-carboxamide]	
		> 0.1	> 0.1	CN(C(=O)CNC(=O)c1ccn(S(C)(=O)=O)c1)c1nc(-c2cccc(-c3ccncc3)c2)cs1 [Compound 152]	
		> 0.01	> 0.01	CO[C@@H]1CCCN(c2cccc(-c3csc(NC(=O)CNC(=O)c4ccn(C(C)(C)C)c4)n3)n2)C1 [Compound 312]	
< 8.00	< 7.00			COC[C@H](NC(=O)c1ccn(S(C)(=O)=O)c1)C(=O)Nc1nc(-c2cc(Cl)c3c(c2)OCO3)cs1 [Compound 617]	
		< 0.01	< 0.01	C[C@@H]1CN(c2cccc(-c3csc(NC(=O)CNC(=O)c4ccn(S(C)(=O)=O)c4)n3)c2)CCO1 [Compound 88, (R)—N-(2-((4-(3-(2-methylmorpholino)phenyl)thiazol-2-yl)amino)-2-oxoethyl)-1-(methylsulfonyl)-1H-pyrrole-3-carboxamide]	
< 8.00	< 8.00			CS(=O)(=O)n1ccc(C(=O)NCC(=O)Nc2nc(-c3cccc([C@H]4CCCOC4)c3)cs2)c1 [Compound 420, 1-methylsulfonyl-N-[2-oxo-2-[[4-[3-[(3R)-tetrahydropyran-3-yl]phenyl]thiazol-2-yl]amino]ethyl]pyrrole-3-carboxamide]	
		< 0.01	< 0.01	C[C@H]1CN(c2cccc(-c3csc(NC(=O)CNC(=O)c4ccn(S(C)(=O)=O)c4)n3)c2)CCO1 [Compound 87, (S)—N-(2-((4-(3-(2-methylmorpholino)phenyl)thiazol-2-yl)amino)-2-oxoethyl)-1-(methylsulfonyl)-1H-pyrrole-3-carboxamide]	
< 7.00	< 7.00			CC(C)(F)COc1cccc(-c2csc(NC(=O)CNC(=O)c3ccn(C4(C)COC4)c3)n2)c1 [Compound 484]	
< 7.00	< 7.00			CC(C)(C)n1ccc(C(=O)NCC(=O)Nc2nc(-c3cccc(C4(O)CC4)n3)cs2)c1 [Compound 395]	
		< 0.01	< 0.01	Cc1cc(C)cc(-c2cccc(-c3csc(NC(=O)CNC(=O)c4ccn(S(C)(=O)=O)c4)n3)c2)c1 [Compound 55, N-(2-((4-(3′,5′-dimethyl-[1,1′-biphenyl]-3-yl)thiazol-2-yl)amino)-2-oxoethyl)-1-(methylsulfonyl)-1H-pyrrole-3-carboxamide]	
> 8.00	< 8.00			CS(=O)(=O)n1ccc(C(=O)NCC(=O)Nc2nc(-c3cccc(-c4cc5n(n4)CCOC5)c3)cs2)c1 [Compound 404]	
		> 0.01	> 0.1	C[C@@H]1CN(c2cccc(-c3csc(NC(=O)CNC(=O)c4ccn(C5(C)COC5)c4)n3)c2F)C[C@H](C)O1 [Compound 268]	
< 8.00	< 8.00			CS(=O)(=O)n1ccc(C(=O)NCC(=O)Nc2nc(-c3cccc(N4CC[C@H](C(F)F)C4)n3)cs2)c1 [Compound 698]	
		> 0.01	> 0.01	CN(C)CC[C@H](NC(=O)c1ccn(S(C)(=O)=O)c1)C(=O)Nc1nc(-c2cccc(-c3ccncc3)c2)cs1 [Compound 78, (S)—N-(4-(dimethylamino)-1-oxo-1-((4-(3-(pyridin-4-yl)phenyl)thiazol-2-yl)amino)butan-2-yl)-1-(methylsulfonyl)-1H-pyrrole-3-carboxamide]	
< 8.00	< 7.00			CS(=O)(=O)n1ccc(C(=O)NCC(=O)Nc2nc(-c3cccc(OC(F)(F)F)c3F)cs2)c1 [Compound 501]	
		< 0.01	< 0.01	CN1CCOc2ccc(-c3csc(NC(=O)CNC(=O)c4ccn(S(C)(=O)=O)c4)n3)cc21 [Compound 282]	
		> 0.01	> 0.1	CN1CCCCc2ccc(-c3csc(NC(=O)CNC(=O)c4ccn(S(C)(=O)=O)c4)n3)cc21 [Compound 273]	
< 8.00	< 7.00			COC[C@H](NC(=O)c1ccn(S(C)(=O)=O)c1)C(=O)Nc1nc(-c2cccc(N3CC[C@@H](C(F)F)C3)n2)cs1 [Compound 691]	
		< 0.01	> 0.01	COC[C@H](NC(=O)c1ccn(S(C)(=O)=O)c1)C(=O)Nc1nc(-c2cccc(N3CCC3)c2)cs1 [Compound 366]	
< 8.00	< 8.00			N#CC1(n2ccc(C(=O)NCC(=O)Nc3nc(-c4ccc(F)c(N5CCC5)c4)cs3)c2)CC1 [Compound 516]	
> 8.00	> 8.00			CS(=O)(=O)n1ccc(C(=O)NCC(=O)Nc2nc(-c3cccc(C4=CCOCC4)c3)cs2)c1 [Compound 400]	
< 8.00	< 8.00			C[C@@H]1CCN(c2cccc(-c3csc(NC(=O)CNC(=O)c4ccn(C(C)(C)C)c4)n3)n2)C1 [Compound 673]	
		> 0.01	> 0.01	COC[C@H](NC(=O)c1ccn(C(C)(C)C)c1)C(=O)Nc1nc(-c2cccc(-c3ccn(C)n3)c2)cs1 [Compound 62, (S)-1-(tert-butyl)-N-(3-methoxy-1-((4-(3-(1-methyl-1H-pyrazol-3-yl)phenyl)thiazol-2-yl)amino)-1-oxopropan-2-yl)-1H-pyrrole-3-carboxamide]	
> 8.00	> 8.00			COC[C@H](NC(=O)c1ccn(C(C)(C)C#N)c1)C(=O)Nc1nc(-c2cc(F)cc(-c3cnn(C)n3)c2)cs1 [Compound 739]	
